1 compound from paper PMC9006931, “Altered Response Pattern following AZD5582 Treatment of SIV-Infected, ART-Suppressed Rhesus Macaque Infants” (Journal of Virology, 2022) can be followed below.

Structures are written as SMILES.

The test system of one test is memory CD8+ T cells. Put plainly: Ki67 expression by whole blood flow cytometry, memory CD8+ T cells. The settings on record: for Ki67 expression in memory CD8+ T cells: AZD5582 treated infant RMs. The class given is in vivo, rhesus macaque. Here is the method: The ncNF-κB pathway plays an important role in regulating T cell differentiation without causing broad systemic inflammation ([22]). We have previously observed a stimulatory effect on peripheral T cells following AZD5582 treatment specifically measurable through increased intracellular Ki67 expression ([17]). To further assess the effect of AZD5582 on infant RMs, flow cytometry was performed longitudinally on whole blood on the day of doses 1, 3, 6, and 9 and both 48 to 72h and 7 days after each of these doses. These time points were selected to allow longitudinal evaluation while remaining within blood volume constraints.
Multicolor flow cytometric analysis was performed on whole blood (WB) or cell suspensions using predetermined optimal concentrations of the following fluorescently conjugated monoclonal antibodies (MAbs). For WB T cell analysis the following MAbs were used: CD3-allophycocyanin (APC)-Cy7 (clone SP34-2), CD95-phycoerythrin (PE)-Cy5 (clone DX2), Ki67-AF700 (clone B56), HLA-DR-peridinin chlorophyll protein (PerCP)-Cy5.5 (clone G46-6), CCR7-fluorescein isothiocyanate (FITC) (clone 150503), CCR5-APC (clone 3A9), CD62L (clone SK11), and CD45-RA-PE-Cy7 (clone L45) from BD Biosciences; CD8-BV711 (clone RPA-T8), CD4-BV650 (clone OKT4), and PD-1-BV421 (clone EH12.2H7) from BioLegend; and CD28-ECD (clone CD28-2) from Beckman-Coulter. Flow cytometric acquisition and analysis of samples were performed on at least 100,000 events on an AURORA flow cytometer driven by the SpectroFlo software package (Cytek). Analyses of the acquired data were performed using FlowJo version 10.0.4 software (TreeStar).

Test [1] relates to CD4+ T cells from SIV-infected, ART-suppressed infant RMs. Put plainly: Ex vivo viral RNA induction assay, infant CD4+ T cells. The class given is cell-based, rhesus macaque. The note with it: 100 nM, 9 days, in presence of DTG+FTC. The source says: Following confirmation of ncNF-κB pathway activation in infant naive and memory CD4^+ T cells ex vivo, we next sought to evaluate SIV reactivation following ex vivo AZD5582 stimulation in CD4^+ T cells isolated from SIV-infected, ART-suppressed infant RMs compared to CD4^+ T cells from SIV-infected, ART-suppressed adult RMs. To do so, we isolated CD4^+ T cells through negative selection from the peripheral blood of five SIV-infected, ART-suppressed adult RMs and five SIV-infected, ART-suppressed infant RMs. Cells were stimulated with either 100 nM AZD5582 or rhesus specific anti-CD2/CD3/CD28 beads (as a positive control) in the presence of ART (DTG+FTC) for 9 days. The supernatant was collected to quantify SIVgag RNA through qPCR as a measure of viral reactivation.
Viable cryopreserved PBMCs from SIV-infected, ART-suppressed infant and adult RMs collected 34 to 97 weeks post ART initiation were thawed, and CD4^+ T cells were enriched by negative selection using the NHP CD4^+ T cell isolation kit (Miltenyi Biotec). […] The viral RNA content of frozen cell-free culture supernatants collected on day 9 was determined using the SIVgag qPCR described above.

The test system of test [2] is NF-κB associated genes in CD4+ T cells. Put plainly: RNA-Seq of peripheral CD4+ T cells pre- and post-AZD5582. The class given is in vivo, rhesus macaque. As for the experimental part:
Treatment with AZD5582 in SIV-infected, ART-suppressed adult RMs upregulates key genes associated with signaling through the ncNF-kB pathway, rather than the canonical NF-κB (cNF-kB) pathway in CD4^+ T cells ([17]). Here, we performed RNA-Seq in total CD4^+ T cells isolated from the peripheral blood of AZD5582-treated infant macaques at baseline (pre-dose 1) and the end of the treatment period (post-dose 10).
RNA-sequencing (RNA-seq) analysis was conducted at the Yerkes Nonhuman Primate Genomics Core Laboratory (http://www.yerkes.emory.edu/nhp_genomics_core/). RNA was purified from 50,000 peripheral blood-derived CD4^+ T cells purified by negative selection and lysed in 350 μL of RLT buffer at −80°C, using Qiagen Micro RNEasy columns, and RNA quality was assessed using an Agilent Bioanalyzer. Following this, 2 ng of total RNA was used as input for mRNA amplification using 5′ template switch PCR with the Clontech SMART-seq v4 Ultra Low Input RNA kit according to the manufacturer’s instructions. Amplified mRNA was fragmented and appended with dual-index bar codes using Illumina NexteraXT DNA library preparation kits. Libraries were validated by capillary electrophoresis on an Agilent 4200 TapeStation, pooled and sequenced on an Illumina HiSeq 3000 using 100-bp single reads at an average depth of 25 million reads. Alignment was performed using STAR version 2.7.3a ([36]) and transcripts were annotated using a composite reference of rhesus macaque (Mmul10 Ensembl release 100).
Statistical analyses were performed using GraphPad Prism Software (v.7 or v.8). P ≤ 0.05 was considered statistically significant. To compare differences in pre-ART viral loads between experimental groups in Fig. 2D and SIV DNA levels in Fig. 3C a two-sided Mann-Whitney test was used. To test the statistical significance observed in Ki67 expression on memory CD4^+ and CD8^+ T cells in Fig. 3B, BIRC3, NFKB2 gene expression in Fig. 6A and B, and SIV RNA expression in Fig. 6C and D. A Wilcoxon matched-pairs signed-rank test was used. For RNA-seq analysis in Fig. 5, RNA-seq data were mapped to the NCBI Mmul10 assembly of the Indian rhesus macaque genome, and alignment was performed with STAR (v.2.7.3a) using Ensemble release 100 annotations as a transcript annotation and splice junction reference. Transcript abundance estimates were calculated internal to the STAR aligner using the algorithm of htseq-count ([37]). DESeq2 ([38]) was used for normalization and differential expression analysis. Gene set enrichment analysis ([39]) (GSEA), performed with the GSEA desktop module (available at https://www.broadinstitute.org/gsea/) and the Molecular Signatures Database (MSigDB), was used to determine pathway/gene set enrichment. Heat maps, volcano plots, and principal-component analysis plots were generated with the R (v 3.6.0) package ggplot2.

Setting [3] is: infant RMs, CD4+ T cells, post-dose 10 vs pre-dose 1.

On to `CN[C@@H](C)C(=O)N[C@H](C(=O)N1CCC[C@H]1C(=O)N[C@H]1c2ccccc2C[C@H]1OCC#CC#CCO[C@@H]1Cc2ccccc2[C@@H]1NC(=O)[C@@H]1CCCN1C(=O)[C@@H](NC(=O)[C@H](C)NC)C1CCCCC1)C1CCCCC1` [AZD5582], for which the “Mean Ki67 expression in peripheral memory CD8+ T cells” value in the test on memory CD8+ T cells (3-days post-AZD5582 (doses 1, 3, 6, 9), P = 0.03) is recorded as 26.5%; in the test on memory CD8+ T cells (baseline (immediately before doses 1, 3, 6, 9)) it was 18.2%. The “Ki67 expression in memory CD8+ T cells” value with memory CD8+ T cells (7 days following dose 1) was 46.7%; in the test on memory CD8+ T cells (before the increase seen after dose 1), 5.1%. Besides, the “Average increase of Ki67 expression in memory CD8+ T cells after dose 1” value in the test with memory CD8+ T cells (relative to three baseline measurements, treated infant RMs) is on record as 23.3%. The “Animals whose CD4+ T cell cultures showed increased SIV RNA expression in supernatant” value in test [1] is reported as 1/5. Moreover, the “BIRC3 and BIRC5 expression in CD4+ T cells” value in test [2] (AZD5582 treated infant and adult RMs) is on record as “most significantly upregulated”. The “Genes downregulated following AZD5582 treatment” value in test [2] (setting [3]) came to 176 genes. Also, the “Genes upregulated following AZD5582 treatment” value in test [2] (setting [3]) was 855 genes. Further, in test [2] (infant RMs, CD4+ T cells, post-dose 10 vs pre-dose 1, FDR 5%, linear fold change 50%), the “Genes differentially expressed following AZD5582 treatment” value is reported as 1,031 genes. Besides, in test [2] (treated infant RMs), the “Expression of RELB, NFKB2 and NFKBIA in CD4+ T cells” value is given as “did not observe increased expression”.
